Assay results as given in patent publication US20190321291A1, “3D Printing and Drug Delivery” (Biogelx Limited, priority 2016, published 2019).
Values joined by “and” are separate entries in the source; they are usually repeats but may differ in a detail not shown here. Equal entries are not always repeated.

Test: Drug release assay from Fmoc-FF/S hydrogel into PBS release buffer, HPLC analysis
Format: physicochemical
Conditions: for release profile from the hydrogel compared with control PBS solution: Fmoc-FF/S hydrogel; for duration of sustained release from the gel: 7-day study; for time over which significant drug concentration continued to be released: gel
Experimental: An 1100 Series high-performance liquid chromatography pump (Agilent, USA) was used for the analysis which was performed using acetonitrile with 0.1% TFA and water with 0.1% TFA. […] This concentration was kept constant until 16 mins; after that the gradient was decreased, reaching 40% (v/v) acetonitrile in water at 19 mins. The data was then processed manually using the software ‘Agilent Chemstation.’
The triplicate samples of release buffer were analysed by HPLC, and for the peaks corresponding to each model drug compound the peak area was measured. The average peak area was recorded, and using a standard curve prepared for each compound the concentration of each was determined.
At each of the specified time points the release buffer remaining in the wells was transferred to HPLC vials and stored at 4° C. until HPLC analysis was performed.
An 1100 Series high-performance liquid chromatography pump (Agilent, USA) was used for the analysis which was performed using acetonitrile with 0.1% TFA and water with 0.1% TFA. […] This concentration was kept constant until 16 mins when the gradient was decreased to 40% (v/v) acetonitrile in water at 19 mins. The data was then processed manually using the software ‘Agilent Chemstation.’
The triplicate samples of release buffer were analysed by HPLC, and for the peaks corresponding to each model drug compound the peak area was measured. The average peak area was recorded, and using standard curve prepared for each compound the concentration of each was determined.

[1] = 30 min, 2 mM control solution of drug in PBS, release buffer PBS 37° C.
[2] = 30 min, drug in Fmoc-FF/S gel, release buffer PBS 37° C.

Row | SMILES | release profile from the hydrogel compared with control PBS solution | Concentration (ug/mL) Control [1] [µg/mL] | Concentration (ug/mL) Gel [2] [µg/mL] | Concentration (ug/mL) Gel (3 h, Fmoc-FF/S gel) [µg/mL] | Concentration (ug/mL) Control (3 h, control solution in PBS) [µg/mL] | Concentration (ug/mL) Gel (6 h, Fmoc-FF/S gel) [µg/mL] | Concentration (ug/mL) Control (6 h, control solution in PBS) [µg/mL] | Concentration (ug/mL) Gel (9 h, Fmoc-FF/S gel) [µg/mL] | Concentration (ug/mL) Control (9 h, control solution in PBS) [µg/mL] | Concentration (ug/mL) Gel (24 h, Fmoc-FF/S gel) [µg/mL] | Concentration (ug/mL) Control (24 h, control solution in PBS) [µg/mL] | Concentration (ug/mL) Gel (48 h, Fmoc-FF/S gel) [µg/mL] | Concentration (ug/mL) Control (48 h, control solution in PBS) [µg/mL] | Concentration (ug/mL) Gel (72 h, Fmoc-FF/S gel) [µg/mL] | Concentration (ug/mL) Control (72 h, control solution in PBS) [µg/mL] | Concentration (ug/mL) Gel (5 d, Fmoc-FF/S gel) [µg/mL] | Concentration (ug/mL) Control (5 d, control solution in PBS) [µg/mL] | Concentration (ug/mL) Gel (7 d, Fmoc-FF/S gel) [µg/mL] | Concentration (ug/mL) Control (7 d, control solution in PBS) [µg/mL] | duration of sustained release from the gel (Fmoc-FF/S gel) | also measured
1 | CC[C@H](C)C(=O)O[C@H]1C[C@H](O)C=C2C=C[C@H](C)[C@H](CC[C@@H](O)C[C@@H](O)CC(=O)O)[C@H]21 [Pravastatin] | slower |  |  |  |  |  |  |  |  |  |  |  |  |  |  |  |  |  |  |  | 
2 | CC(C)NCC(O)c1ccc(NS(C)(=O)=O)cc1 (stereo not drawn) [Sotalol] | slower |  |  |  |  |  |  |  |  |  |  |  |  |  |  |  |  |  |  |  | 
3 | CC(C)NCC(O)COc1ccc(CCOCC2CC2)cc1 (stereo not drawn) [Betaxolol] |  | 10.34 | 0.67 | 9.08 | 22.71 | 6.37 | 0.90 | 2.98 | 0.07 | 5.15 | 0 | 1.49 | 0 | 0.27 | 0 | 0.11 | 0 | 0 | 0 | 5 days | release time from the gel (10 mM Fmoc-FF/S gel): 5 days; release time from the control insert (control solution in PBS): 9 h
4 | CC(C)n1c(/C=C/[C@H](O)C[C@H](O)CC(=O)O)c(-c2ccc(F)cc2)c2ccccc21 (racemic) [Fluvastatin] | slower |  |  |  |  |  |  |  |  |  |  |  |  |  |  |  |  |  |  |  | 
5 | CC(C)NCC(O)COc1cccc2ccccc12 (stereo not drawn) [Propranolol] | altered significantly | 17.8 | 0.03 | 7.02 | 36.4 | 5.38 | 0.06 | 4.61 | 0 | 7.78 | 0 | 7.49 | 0 | 4.02 | 0 | 3.81 | 0 | 2.05 | 0 | > 7 days and 7 days | time by which drug release was below measurable limits (control): ≤ 9 h; time over which significant drug concentration continued to be released (concentration of the peptides 10 mM): ≥ 72 h; time over which significant drug concentration continued to be released (concentration of the peptides 40 mM): ≥ 72 h
6 | C=C[C@H]1C[N@]2CC[C@H]1C[C@@H]2[C@@H](O)c1ccnc2ccc(OC)cc12 [Quinidine] |  |  |  |  |  |  |  |  |  |  |  |  |  |  |  |  |  |  |  | 7 days | drug still present in the remaining gel residue at the end of the experiment (10 mM Fmoc-FF/S gel, HPLC, end of 7-day study): 4.5%; release time from the control insert (control solution in PBS): 9 h; total release corresponding to control results (control solution in PBS): 85%
